Assay results reported in US20070248967A1, “Reporter Assay Using Secrectory Luminescent Enzymes” (NATIONAL INSTITUTE OF ADVANCED INDUSTRIAL SCIENCE, priority 2005, published 2007).
Blank lines part the entries; values can stand above or below the molecule they belong to.

Legend:
CUP1 promoter = experiment: CuSO4 induction experiment, reporter assay using mCLuc or β-galactosidase; type: cell-based, Saccharomyces cerevisiae; details: 0.025 mM CuSO4-containing medium, pmCLuRA-CUP1 (8 hours) / pGALuRA-CUP1 (16 hours); FIGS. 13A, 13B
Protocol: It has been known that the expression of the CUP1 gene (systematic gene name: YHR053C) of Saccharomyces cerevisiae is induced in the presence of copper ions (Gene, 48, 13-22 (1986)). That is, a CUP1 promoter is a copper-ion-inducible promoter. Thus, with the use of pmCLuRA-CUP1, it was examined whether or not such induction would be observed in the case of mCLuc. In addition, a similar experiment was carried out using β-galactosidase. The results of both experiments were compared and examined.
Three clones of a transformant comprising pmCLuRA-CUP1 and those of a transformant comprising pGALuRA-CUP1 described above were separately introduced into a synthetic liquid medium (SD+KHLadeW 200 mM KPi). Each resultant was shake-cultured overnight at 30° C. until the stationary phase.
Subsequently, 5 μl of the culture solution containing a transformant comprising pmCLuRA-CUP1 was introduced into each well of a 96-deep well plate, with 1 ml of a 0.025 mM CuSO4-containing synthetic liquid medium (SD+KHLadeW 200 mM KPi) or a CuSO4-free synthetic liquid medium (SD+KHLadeW 200 mM KPi) having been added to such well. This was followed by shake culture at 30° C. 8 hours after the initiation of culture, a portion of the culture solution was recovered, followed by measurement of absorbance at 600 nm (OD600) and relative light units (RLU) from a luminometer in accordance with the method in Example 1. […]

CLuc [1] = experiment: Influences of various chemical substances on CLuc activity measurement; type: biochemical, Cypridina noctiluca; details: highly concentrated chemical substance added to culture supernatant; FIG. 6
Description: For the CLuc activity measurement, an LB960 luminometer (Berthold) was used.
The measurement values were divided by absorbance of the culture solution at 600 nm such that CLuc activity subjected to a correction of the number of yeast cell bodies was obtained.
Influences of chemical substances on CLuc activity measurement were examined, as such substances coexist with yeast culture supernatants upon CLuc activity measurement following the secretory expression of CLuc in yeasts.
Chemical substances (2 μl) that had been adjusted to have different concentrations were separately added to 20 μl of the prepared culture supernatant, followed by CLuc activity measurement.
The relative residual activity of each sample is represented by the mean value and the standard deviation on the condition that the CLuc activity of a sample to which a chemical substance was not added is determined to be 100%.

CLuc [2] = details: final concentration in reaction solution, 100 mM Tris-HCl pH 7.4; FIG. 3
Protocol: In addition, a stock solution of the culture supernatant of the transformant comprising pCLuRA-TDH3 was separately serial-diluted 10-fold, 100-fold, 1000-fold, and 10000-fold with an SD medium containing a 100 mM phosphate buffer solution so that the resulting diluted culture supernatants were used. Specifically, the concentration of the culture supernatant stock solution was determined to be 100% such that 10-fold, 100-fold, 1000-fold, and 10000-fold diluted culture supernatants had supernatant concentrations of 10%, 1%, 0.1%, and 0.01%, respectively.
Then, CLuc activity measurement was carried out as with the case of Example 1.
In FIG. 3, plots indicate results obtained by using culture supernatants that had been serial-diluted with a culture supernatant stock solution (100%) with reaction solutions with different final concentrations of luciferin.

GAL1 promoter = experiment: Galactose induction experiment, reporter assay using mCLuc or β-galactosidase; type: cell-based, Saccharomyces cerevisiae; details: 2% galactose-containing medium without glucose, 32 hours, pmCLuRA-GAL1 / pGALuRA-GAL1; FIGS. 14A, 14B
Protocol: It has been known that the expression of GAL1 gene (systematic gene name: YBR020W) of Saccharomyces cerevisiae is induced in the absence of glucose and the presence of galactose (West, R. W. J. et al., Mol. Cell. Biol., 4: 2467-2478 (1984)). That is, a GAL1 promoter is a galactose-inducible promoter. Thus, with the use of pmCLuRA-GAL1, it was examined whether or not such induction would be observed in the case of mCLuc. In addition, a similar experiment was carried out using β-galactosidase. The results of both experiments were compared and examined.
Three clones of a transformant comprising pmCLuRA-GAL1 and those of a transformant comprising pGALuRA-GAL1 described above were separately introduced into a synthetic liquid medium (SD+KHLadeW 200 mM KPi). […]
Subsequently, 20 μl of the culture solution containing a transformant comprising pmCLuRA-GAL1 was introduced into each well of a 96-deep well plate, with 1 ml of a 2% galactose-containing synthetic liquid medium (SC+KHLadeW (prepared by removing glucose from SD+KHLWade in Example 1) 200 mM KPi) or a synthetic liquid medium (SD+KHLadeW 200 mM KPi) having been added to such well. […] 32 hours after the initiation of culture, a portion of the culture solution was recovered, followed by measurement of absorbance at 600 nm (OD600) and relative light units (RLU) from a luminometer in accordance with the method in Example 1. […]

[3] = Stability of CLuc activity after sampling of culture solutions; type: physicochemical; details: culture solution incubated at 25° C. for 30 minutes; FIG. 8
Protocol: Thus, in order to examine the stability of CLuc activity after sampling of culture solutions, a transformant comprising pCLuRA-TDH3 prepared in Example 1 was cultured as with the case of Example 1. Then, the yeast culture solution was partially collected (sampling), followed by incubation at 25° C. for 0, 10, 20, and 30 minutes. After incubation, the CLuc activity of each culture solution sample was measured as with the case of Example 1.
In FIG. 8, CLuc activity is shown as the relative residual activity based on the CLuc activity of a sample that was measured immediately after sampling (100%).

[4] = Stability of CLuc in yeast culture supernatants; type: physicochemical
Protocol: The prepared culture supernatants were incubated at 0° C., 25° C., 40° C., and 50° C. for 0, 15, 30, and 60 minutes, respectively, followed by CLuc activity measurement.
In FIG. 4, each plot indicates the mean value and the standard deviation of relative residual activities of each sample subjected to incubation at a given temperature for a given period of time. The vertical axis denotes the relative residual activity based on the CLuc activity (100%) of a sample that had not been incubated.

Molecule: O=S(=O)([O-])[O-].[Cu+2] [CuSO4]
transcription induction of the CUP1 promoter (CUP1 promoter): transcription induction | inhibition of the enzyme activity of CLuc (relative residual activity) (CLuc [1]): inhibited

Molecule: CC[C@H](C)c1nc2c(CCCNC(=N)N)[nH]c(-c3c[nH]c4ccccc34)cn-2c1=O [Cypridina luciferin]
final luciferin concentration at which CLuc activity reaches a saturation point (CLuc [2]): ≥ 1 µM

inhibition of the enzyme activity of CLuc (relative residual activity) (CLuc [1]): inhibited
Molecule: CCO [ethanol]

Molecule: O=C[C@H](O)[C@@H](O)[C@@H](O)[C@H](O)CO [galactose]
transcription induction of the GAL1 promoter (GAL1 promoter): transcription induction

B1: CLuc: Cypridina noctiluca-secretory luciferase (SEQ ID NO: 2); secreted from yeast as αCLuc with α-factor signal peptide (protein, listed as Cypridina noctiluca)
chain: MKTLILAVALVYCATVHCQDCPYEPDPPNTVPTSCEAKEGECIDSSCGTCTRDILSDGLCENKPGKTCCRMCQYVIECRVEAAGWFRTFYGKRFQFQEPGTYVLGQGTKGGDWKVSITLENLDGTKGAVLTKTRLEVAGDIIDIAQATENPITVNGGADPIIANPYTIGEVTIAVVEMPGFNITVIEFFKLIVIDILGGRSVRIAPDTANKGMISGLCGDLKMMEDTDFTSDPEQLAIQPKINQEFDGCPLYGNPDDVAYCKGLLEPYKDSCRNPINFYYYTISCAFARCMGGDERASHVLLDYRETCAAPETRGTCVLSGHTFYDTFDKARYQFQGPCKEILMAADCFWNTWDVKVSHRNVDSYTEVEKVRIRKQSTVVELIVDGKQILVGGEAVSVPYSSQNTSIYWQDGDILTTAILPEALVVKFNFKQLLVVHIRDPFDGKTCGICGNYNQDFSDDSFDAEGACDLTPNPPGCTEEQKPEAERLCNSLFAGQSDLDQKCNVCHKPDRVERCMYEYCLRGQQGFCDHAWEFKKECYIKHGDTLEVPDECK
modifications: α-factor signal peptide
change in CLuc activity after sampling (relative residual activity) [3]: almost no change | stability of CLuc as an enzyme (relative residual activity) ([4]; culture supernatant incubated at 0, 25, 40, 50° C. for 0-60 minutes, FIG. 4): highly stable | stability of CLuc at room temperature ([4]; culture supernatant, room temperature, 15 minutes after sampling): stable
